Experiment [1] addresses T1, human cathepsin K (Homo sapiens, UniProt P43235).
T1 construct: purchased Calbiochem
T1 sequence (P43235 115-329): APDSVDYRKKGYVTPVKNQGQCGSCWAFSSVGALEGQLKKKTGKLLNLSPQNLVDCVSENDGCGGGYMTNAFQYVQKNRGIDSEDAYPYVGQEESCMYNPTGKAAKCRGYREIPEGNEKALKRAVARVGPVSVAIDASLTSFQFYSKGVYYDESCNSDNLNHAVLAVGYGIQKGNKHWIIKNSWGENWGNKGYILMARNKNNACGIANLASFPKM
The experiment in a line: human cathepsin K enzyme inhibitor (selectivity) assay. The format is biochemical. As to the method: (§1) Potency assays for human cathepsin S and mouse cathepsin S and selectivity assays for human cathepsins L, B, K, V, and F are described below. The experimental conditions and/or materials of each assay differ slightly and therefore such differences are noted either directly within the general assay conditions or coded according to the respective enzyme assay using designations 1a through 1 g in Table 1 immediately following the general assay conditions.
(§2) Test compounds are prepared in DMSO to make up a 10 mM stock solution. The stock solution is serially diluted in DMSO to obtain a ten-point dilution curve with a final compound concentration range 1a in a 96-well round-bottom plate before conducting the in vitro enzymatic assay.
(§3) Amount 1c of substrate, benzyloxycarbonyl-L-leucyl-L-arginine-4-methyl-coumaryl-7-amide (Peptide Institute), prepared in assay buffer, is added to each well of the plate for a final concentration 1d. Amount 1e of the respective enzyme, described immediately hereafter, prepared in assay buffer is added to each well of the plate containing substrate and test compound resulting in a final concentration 1f to initiate the reaction. • Human cathepsins S, L, K, and V: Obtained from Calbiochem. • Mouse cathepsin S: Briefly, mouse cathepsin S is cloned in baculovirus using a mCathepsin S-pAN51(T760) construct containing a histidine tag. […]

The target of experiment [2] is T2, human cathepsin L (Homo sapiens, UniProt P07711).
T2 construct: purchased Calbiochem
The experiment in a line: human cathepsin L enzyme inhibitor (selectivity) assay. The format is biochemical. As to the method:
as §1, §2, §3

Experiment [3] has as its system CaCl2-induced AAA (aortic luminal perimeter). Nature of the experiment: CaCl2-induced AAA Animal Efficacy Model. The conditions noted are these: for In Vivo Percentage (%) Reduction of AAA: 129SvEv mice, aortic luminal perimeter by ultrasound, mean ± SD. The format is in vivo, mouse. As to the method: The first dose is given one day prior to surgery (p.m.) and the second dose is given the morning of surgery. […] B.i.d. dosing (a.m. and p.m.) is continued the day after surgery for 28 days. On the day of surgery, animals received analgesia ([…]®, 0.1 mg/kg) subcutaneously 10 min. pre-operatively and 3 hr. post-operatively. Mice are anesthetized by inhalation of 2% isoflurane and a laparotomy is performed. The abdominal aorta is exposed by retracting the bowel laterally with a surgical retractor and leaving the bowel in the abdominal cavity. […] Once isolated, the region of interest of the abdominal aorta is wrapped with a premeasured sterile cotton gauze soaked in 0.25 M aqueous CaCl2 solution. In sham control animals, 0.9% saline is substituted for CaCl2. After 7 min., the gauze is removed and a second CaCl2 soaked gauze (or 0.9% saline soaked gauze in sham animals) is applied. Following a second 7 minute period, the gauze is removed, the aorta is rinsed with 0.9% saline and the abdomen is closed. […] After 4 weeks of dosing as described above, the aortic luminal perimeter, area and diameter of the aortic segments that were wrapped with gauze are determined by ultrasound (Biosound Ultrasound-7.5 MHz) and statistically analyzed with JMP® 7 software (Cary, N.C.).

For experiment [4], the system named is p10 in PWBC. Nature of the experiment: p10 Accumulation Assay. The conditions noted are these: 4 hr.; for In vivo relative p10 accumulation in PWBC: mice, relative to vehicle, normalized with tubulin, mean ± SD. It counts as in vivo, mouse. As to the method:
After 4 hr., whole blood (300-500 μL) is drawn from each mouse. The step of removing red blood cells is performed by adding one mL Flow Cytometry Lysing Solution™ (Santa Cruz Biotechnology, Inc.), keeping at room temperature for 10 min., centrifuging at 4000 rpm for 5 min. and then discarding the supernatant. This step is repeated once to remove the red blood cells completely. The PWBC pellet is resuspended with 50 μL CytoBuster™ Reagent (Novagen) and sonicated at high power for 5-10 sec.
The p10 amount is determined using a Western blot. […] Gels are run at 120 V for 60 min. with the NUPAGE® MES SDS running buffer (Invitrogen). Proteins are transferred to 0.2 μm nitrocellulose (BIO-RAD) at 100 V for 30 min. with NUPAGE® Transfer Buffer (Invitrogen) and 20% methanol (EMD). Blot is briefly rinsed with PBS and blocked in 10 mL in ODYSSEY® Blocking Buffer (LI-COR Biosciences) at room temperature for 60 min. For p10, the blot is incubated with primary antibody against mouse CD74 (1 μg/ml of rat anti-CD74 antibody)(BD Bioscience) in blocking buffer at 4° C. overnight. For tubulin control, the blot is incubated with rabbit anti-beta tubulin pAb (0.2 μg/ml)(Abcam) in blocking buffer at 4° C. overnight. The blot is washed with washing buffer (DPBS from HyClone) with 0.01% polysorbate 20 four times for 10 min. each. The blot is then incubated with secondary antibody at room temperature for 60 min. For p10, ALEXA FLUOR® 680 goat anti rat IgG (1:5000 dilution)(Invitrogen) is used. For tubulin, ALEXA FLUOR® 680 goat anti rabbit IgG (1:5000 dilution)(Invitrogen). The blot is again washed as described above and placed in PBS for scanning.
The images are captured by scanning on an ODYSSEY® Infrared Imager (LI-COR Biosciences). The p10 amount is analyzed with ODYSSEY® software and normalized with the tubulin amount. The data are statistically analyzed with JMP® 7 software (Cary, N.C.). Values are represented as means±standard deviation.

Experiment [5] has as its target human cathepsin B (Homo sapiens, UniProt P07858). Nature of the experiment: human cathepsin B enzyme inhibitor (selectivity) assay. The format is biochemical. As to the method: as §1, §2, §3
For experiment [6], the target named is T3, human cathepsin S (Homo sapiens, UniProt P25774).
T3 construct: purchased Calbiochem
Nature of the experiment: human cathepsin S enzyme inhibitor assay. The format is biochemical. As to the method:
as §1, §2, §3

Experiment [7] has as its target T4, human cathepsin V (Homo sapiens, UniProt O60911).
T4 construct: purchased Calbiochem
Nature of the experiment: human cathepsin V enzyme inhibitor (selectivity) assay. It counts as biochemical. As to the method:
as §1, §2, §3

The target in experiment [8] is T5, mouse cathepsin S (Mus musculus, UniProt O70370).
T5 construct: histidine tag; made in house
The experiment in a line: mouse cathepsin S enzyme inhibitor assay. It counts as biochemical. As to the method: as §1, §2, §3

pIC50: −log10 of the molar value.

For orientation: pIC50 means the IC50 on a negative log10 scale, so that one unit is a factor of ten.

T3 sequence (P25774 115-331): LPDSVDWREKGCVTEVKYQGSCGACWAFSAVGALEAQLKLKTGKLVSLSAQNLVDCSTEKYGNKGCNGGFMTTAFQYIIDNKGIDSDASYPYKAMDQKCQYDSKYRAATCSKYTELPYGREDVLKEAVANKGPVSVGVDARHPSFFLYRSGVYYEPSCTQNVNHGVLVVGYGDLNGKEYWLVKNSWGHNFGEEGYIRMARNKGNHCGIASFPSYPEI
T2 sequence (P07711 114-333): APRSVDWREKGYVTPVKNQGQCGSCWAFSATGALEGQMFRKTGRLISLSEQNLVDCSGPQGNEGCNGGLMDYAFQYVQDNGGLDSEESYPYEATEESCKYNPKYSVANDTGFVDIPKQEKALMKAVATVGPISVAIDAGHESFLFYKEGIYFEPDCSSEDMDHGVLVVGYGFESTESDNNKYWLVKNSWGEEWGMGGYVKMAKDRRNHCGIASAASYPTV
T4 sequence (O60911 114-334): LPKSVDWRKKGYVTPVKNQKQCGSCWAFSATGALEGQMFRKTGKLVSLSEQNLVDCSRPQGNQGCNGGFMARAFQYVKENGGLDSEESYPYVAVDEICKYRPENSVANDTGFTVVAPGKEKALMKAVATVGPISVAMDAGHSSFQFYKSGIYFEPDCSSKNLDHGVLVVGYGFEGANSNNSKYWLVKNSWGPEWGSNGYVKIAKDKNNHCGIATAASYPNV

As to `CNC(=O)O[C@H]1CCc2ccc(N3CCN(C4COC4)CC3)cc2[C@@H]1NC(=O)c1ccc(F)cc1` [Example 2, [(1S,2S)-1-[(4-Fluorobenzoyl)amino]-7-[4-(oxetan-3-yl)piperazin-1-yl]tetralin-2-yl] N-methylcarbamate], the pIC50 in experiment [1] was less than 4.00; in experiment [2], less than 3.78; in experiment [5] it was approximately 4.03; in experiment [6], approximately 7.99; in experiment [7], less than 4.00; in experiment [8], approximately 8.41. Moreover, the “In Vivo Percentage (%) Reduction of AAA” value turned out to be 11 ± 7% in experiment [3] (1 mg/kg oral gavage b.i.d. 4 weeks), 32 ± 9% in experiment [3] (3 mg/kg oral gavage b.i.d. 4 weeks), 43 ± 9% in experiment [3] (10 mg/kg oral gavage b.i.d. 4 weeks) and 52 ± 7% in experiment [3] (30 mg/kg oral gavage b.i.d. 4 weeks). In addition, in experiment [3] (1-30 mg/kg oral b.i.d. 4 weeks), the “effect on aortic luminal perimeter (in words)” value was “reduce the aortic luminal perimeter in a dose-dependent manner”. In addition, the “In vivo relative p10 accumulation in PWBC” value worked out at 1.1 ± 0.7 fold increase in experiment [4] (3 mg/kg oral gavage), 2.2 ± 1.3 fold increase in experiment [4] (10 mg/kg oral gavage) and 4.6 ± 1.2 fold increase in experiment [4] (30 mg/kg oral gavage). In addition, the “effect on p10 in PWBC (in words)” value in experiment [4] (3-30 mg/kg oral) is “dose dependently increase p10 in PWBC”.

Source of the values: US8227468B2, “Cathepsin S inhibitor compounds” (Eli Lilly and Company, priority 2010, dated 2012).
